Reference: patent US12583820B2, “Broad spectrum antivirals against coronavirus” (priority 2020, dated 2026)
Like-named read-outs stand apart in the source and are kept apart here.

Legend:
[1] = test system: NV in the replicon harboring cells (HG23 cells); assay: microbe, parasite or virus in culture; format: cell-based, norovirus (NV)
[2] = test system: HG23 cells
[3] = target: NV 3CLpro (Norovirus, UniProt Q83883); assay: biochemical; format: biochemical
[4] = target: 3CLpro of MERS-CoV (Middle East respiratory syndrome-related coronavirus, UniProt K9N7C7); assay: biochemical; format: biochemical
Sequence of 3CLpro of MERS-CoV (K9N7C7 3248-3553 limits assumed): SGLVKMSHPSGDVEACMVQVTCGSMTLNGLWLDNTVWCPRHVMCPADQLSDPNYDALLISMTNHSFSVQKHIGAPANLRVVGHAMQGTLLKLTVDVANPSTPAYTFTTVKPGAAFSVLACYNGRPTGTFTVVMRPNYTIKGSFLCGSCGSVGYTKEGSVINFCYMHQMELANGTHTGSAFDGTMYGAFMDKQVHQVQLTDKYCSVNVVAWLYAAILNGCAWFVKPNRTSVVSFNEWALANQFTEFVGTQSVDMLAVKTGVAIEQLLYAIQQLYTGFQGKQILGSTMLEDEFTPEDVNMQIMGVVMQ

[5] = in vitro; settings: human
[6] = test system: Huh-7, CRFK or CCL1 cells; assay: Nonspecific cytotoxic effects (CC50), CytoTox 96 kit; settings: Huh-7, CRFK, or CCL1 cells, Table 7
[7] = test system: MHV-1; assay: microbe, parasite or virus in culture; format: cell-based, mouse hepatitis virus (MHV); settings: Murine coronavirus, read-out: EC50 in cell culture (μM) MHV
[8] = test system: FIPV; assay: microbe, parasite or virus in culture; format: cell-based; settings: Alphacoronavirus 1, CRFK, read-out: EC50 in cell culture (μM) FIPV
[9] = test system: MERS-CoV; assay: microbe, parasite or virus in culture; format: cell-based; settings: for EC50: Middle East respiratory syndrome-related coronavirus, Huh-7, read-out: EC50 in cell culture (μM) MERS-CoV
[10] = target: 3CLpro of SARS-CoV (Severe acute respiratory syndrome coronavirus, UniProt P0C6X7); format: biochemical; settings: read-out: IC50 in enzyme assay (μM) SARS-CoV
[11] = target: T1, 3CLpro of SARS-CoV-2 (Severe acute respiratory syndrome coronavirus 2, UniProt P0DTD1); assay: biochemical; format: biochemical
T1 construct: The codon-optimized cDNA of full length of 3CLpro of SARS-CoV-2; 6xHis (N); made in house; pET-28a(+) vector (points to E. coli, my inference)

[12] = Nonspecific cytotoxic effects (CC50), CytoTox 96 kit; settings: Huh-7, CRFK or CCL1 cells (confluent, 96-well plates)
[13] = test system: SARS-CoV-2; assay: microbe, parasite or virus in culture; format: cell-based; settings: Severe acute respiratory syndrome coronavirus 2, Vero C1008, read-out: EC50 in cell culture (μM) SARS-CoV-2
[14] = read-out: MERS-CoV IC50(μM) Enzyme
[15] = Norovirus, HG23, read-out: EC50 (μM) ± SD
[16] = read-out: IC50 in enzyme assay (μM) MERS-CoV

Sequence of NV 3CLpro (Q83883 1101-1281): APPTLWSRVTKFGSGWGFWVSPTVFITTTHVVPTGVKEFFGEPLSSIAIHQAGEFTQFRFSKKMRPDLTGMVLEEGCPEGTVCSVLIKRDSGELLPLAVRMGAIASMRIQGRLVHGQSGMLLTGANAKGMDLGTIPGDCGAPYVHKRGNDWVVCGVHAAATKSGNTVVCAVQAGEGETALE

Work on `CC(C)C[C@H](NC(=O)OC1(c2cccc(Cl)c2)CC1)C(=O)N[C@@H](C[C@@H]1CCNC1=O)C(O)S(=O)(=O)O` (some centres unmarked) [Compound 6r] yielded an EC50 ([1]; read-out: EC50 (μM) ± SD) of 0.55 ± 0.08 µM, a CC50 [2] greater than 100 µM and an IC50 ([3]; read-out: IC50 (μM) ± SD) of 0.25 ± 0.08 µM.

For `CC(C)C[C@H](NC(=O)OCCCc1ccccc1)C(=O)N[C@@H](C[C@@H]1CCNC1=O)C(O)S(=O)(=O)O` (some centres unmarked) [Compound 6m], the EC50 ([1]; read-out: EC50 (μM) ± SD) was 0.85 ± 0.07 µM, the CC50 [2] was greater than 100 µM and the IC50 ([3]; read-out: IC50 (μM) ± SD) was 0.6 ± 0.14 µM.

In the case of `CC(C)(COC(=O)N[C@@H](CC1CCCCC1)C(=O)N[C@H](C=O)C[C@@H]1CCNC1=O)c1cccc(Cl)c1` [Compound 5d (Scheme 2)], the EC50 ([1]; read-out: EC50 (μM) ± SD) is reported as 0.07 ± 0.01 µM, the CC50 [2] is reported as 13.3 ± 1.27 µM and the IC50 [4, 14] is reported as 1.9 µM. It also gave an IC50 ([3]; read-out: IC50 (μM) ± SD) of 0.23 ± 0.04 µM.

`O=C[C@H](C[C@@H]1CCNC1=O)NC(=O)[C@H](CC1CCCCC1)NC(=O)OC/C=C/c1cccc(Cl)c1` [Compound 5s] showed a CC50 [5] of 24.1 ± 0.6 µM, an EC50 [1, 15] of 0.06 ± 0.01 µM and an IC50 [3] of 0.14 ± 0.01 µM.

For “Sodium (2S)-1-hydroxy-2-((S)-4-methyl-2-(((((1s,4S)-4-propylcyclohexyl)oxy)carbonyl) amino)pentanamido)-3-((S)-2-oxopyrrolidin-3-yl)propane-1-sulfonate [Compound 3c]”, the CC50 [6] was greater than 100 µM.

With `CC(C)C[C@H](NC(=O)OC/C=C/c1cccc(Cl)c1)C(=O)N[C@H](C=O)C[C@@H]1CCNC1=O` [Compound 5t] the CC50 [5] was greater than 100 µM, the EC50 [1, 15] was 0.08 ± 0.01 µM and the IC50 [3] was 0.15 ± 0.05 µM.

`O=C(N[C@@H](CC1CCCCC1)C(=O)N[C@@H](C[C@@H]1CCNC1=O)C(O)S(=O)(=O)O)OC/C=C/c1cccc(Cl)c1` (some centres unmarked) [Compound 6s] gave an EC50 ([1]; read-out: EC50 (μM) ± SD) of 0.07 ± 0.02 µM, a CC50 [2] of 28.3 ± 2.8 µM and an IC50 ([3]; read-out: IC50 (μM) ± SD) of 0.16 ± 0.01 µM.

With “((1s,4S)-4-Propylcyclohexyl) methyl-d2 ((2S)-4-methyl-1-oxo-1-(((2S)-1-oxo-3-(2-oxopyrrolidin-3-yl) propan-2-yl) amino) pentan-2-yl) carbamate [Compound 9b]” the CC50 [6] was greater than 100 µM.

For `CC(C)C[C@H](NC(=O)OC1CCCCC1)C(=O)N[C@@H](C[C@@H]1CCNC1=O)C(O)S(=O)(=O)[O-].[Na+]` (stereo partly drawn) [Compound 7a (Scheme 1), sodium (2S)-2-((S)-2-(((cyclohexyloxy)carbonyl)amino)-4-methylpentanamido)-1-hydroxy-3-((S)-2-oxopyrrolidin-3-yl)propane-1-sulfonate], the EC50 [7] was 0.08 µM, the EC50 [8] was 0.07 µM and the “EC50 values against MERS-CoV in cell culture (in words)” value [9] was “submicromolar”. For the same compound, the EC50 [9] was 0.08 µM, the IC50 [10] was 3.8 µM and the IC50 [4, 16] was 0.15 µM. It also gave an IC50 [11] of 3.5 µM and a CC50 at 72 h [12] greater than 100 µM.

In the case of `CC(C)C[C@H](NC(=O)OCC(C)(C)c1ccccc1)C(=O)N[C@H](C=O)C[C@@H]1CCNC1=O` [Compound 5f (Scheme 2)], the EC50 ([1]; read-out: EC50 (μM) ± SD) is reported as 0.65 ± 0.07 µM, the CC50 [2] is reported as greater than 100 µM and the IC50 [4, 14] is reported as 0.8 µM. The IC50 ([3]; read-out: IC50 (μM) ± SD) was 0.45 ± 0.07 µM.

For `CCCCC1CCC(OC(=O)N[C@@H](CC(C)C)C(=O)N[C@H](C=O)C[C@@H]2CCNC2=O)CC1` (stereo partly drawn) [Compound 6e (Scheme 1), 4-butylcyclohexyl ((S)-4-methyl-1-oxo-1-(((S)-1-oxo-3-((S)-2-oxopyrrolidin-3-yl)propan-2-yl)amino)pentan-2-yl)carbamate], the EC50 [7] was 0.12 µM, the EC50 [8] was 0.22 µM and the IC50 [10] was 0.9 µM. For the same compound, the IC50 [4, 16] was 0.15 µM, the IC50 [11] was 0.8 µM and the EC50 [13] was 0.1 µM. The CC50 at 72 h [12] was greater than 100 µM.

With `O=C[C@H](C[C@@H]1CCNC1=O)NC(=O)[C@H](CC1CCCCC1)NC(=O)OC1(c2cccc(Cl)c2)CC1` [Compound 5q] the CC50 [5] was 36.5 ± 7.1 µM, the EC50 [1, 15] was 0.25 ± 0.07 µM and the IC50 [3] was 0.28 ± 0.06 µM.

In the case of `CC(C)C[C@H](NC(=O)OC1CCC(F)(F)CC1)C(=O)N[C@@H](C[C@@H]1CCNC1=O)C(O)S(=O)(=O)[O-].[Na+]` (stereo partly drawn) [Compound 7h (Scheme 1), sodium (2S)-2-((S)-2-((((4,4-difluorocyclohexyl)oxy)carbonyl)amino)-4-methylpentan-amido)-1-hydroxy-3-((S)-2-oxopyrrolidin-3-yl)propane-1-sulfonate], the EC50 [7] is reported as 0.11 µM, the EC50 [8] is reported as 0.12 µM and the “EC50 values against MERS-CoV in cell culture (in words)” value [9] is reported as “submicromolar”. The EC50 [9] was 0.21 µM, the IC50 [10] was 2.2 µM and the IC50 [4, 16] was 0.08 µM. For the same compound, the CC50 at 72 h [12] was greater than 100 µM.

In the case of `CC(C)C[C@H](NC(=O)OC1(c2cccc(Cl)c2)CC1)C(=O)N[C@H](C=O)C[C@@H]1CCNC1=O` [Compound 5r], the CC50 [5] is reported as greater than 100 µM, the EC50 [1, 15] is reported as 0.65 ± 0.2 µM and the IC50 [3] is reported as 0.28 ± 0.03 µM.
